Tests used:
[1] = tested on: 3T3-L1 cells (pre-adipocytes); test: Suppression of lipid accumulation in pre-adipocytes (Oil Red O staining); format: cell-based, mouse; conditions: 3T3-L1, various concentrations, differentiation induced for 10 days
Protocol: The pre-adipocytes 3T3-L1 cells were grown to confluence and then incubated for two days with various concentrations of the peptides in a differentiation medium containing 10 μg/ml insulin, 0.1 μM dexamethasone, and 0.5 μM IBMX. The medium was exchanged every two days with a medium containing 10 μg/ml insulin. After differentiation was induced for 10 days, the generation of droplet in the cells was examined by Oil Red O staining. The prepared 3T3-L1 adipocytes were washed with PBS, fixed with 3.7% formalin for one hour, and washed with 60% isopropanol. The resulting cells were dyed with Oil Red O reagent at room temperature for 20 min. After removal of the Oil Red O reagent, the cells were washed three times with distilled water, and observed under a phase-contrast microscope. For quantitative analysis, fats were extracted from the cells using 100% isopropanol, and the cells were transferred in an amount of 200 μl/well into 96-well plates and measured for optical density at 500 nm using an ELISA reader.

[2] = tested on: aP2; test: RT-PCR expression of adipogenic marker aP2 in 3T3-L1; format: cell-based, mouse; conditions: for expression level of adipogenic marker aP2 (individual peptides): 3T3-L1, incubated for three days
Protocol: (§1) 3T3-L1 cells (pre-adipocytes) were seeded at a density of 3×10^5 cells/well into 6-well plates. […] Thereafter, the cells were harvested and treated with an RNA extraction solution (Easy Blue, Intron) to prepare RNA from which cDNA was then synthesized using an RT premix (Intron). PCR was performed using primers for […] markers (PPARγ, ACC, and aP2), and a PCR premix (Intron).
(§2) Target-specific primer sequences for PCR of adipogenic markers were as follows: PPARγ forward primer sequence, 5′-[…]-3′ and PPARγ reverse primer, 5′-[…]-3′ (annealing temperature, 60° C.); ACC forward primer sequence, 5′-[…]-3′ and ACC reverse primer, 5′-[…]-3′ (annealing temperature, 60° C.); aP2 forward primer sequence, 5′-[…]-3′ and aP2 reverse primer, 5′-[…]-3′ (annealing temperature, 60° C.)
(§3) PCR products were each loaded in a volume of 5 μl into a 1% agarose gel, and electrophoresed, followed by identifying bands in a Gel-Doc.

[3] = tested on: DB/DB diabetes-induced mice; test: Blood sugar over time in DB/DB diabetes-induced mice given individual peptides; format: in vivo, mouse; conditions: starved 16 hours, fed 30 min, then peptide administered
Protocol: In addition, after starvation for 16 hours, DB/DB diabetes-induced mice were fed for 30 min and then administered with the peptides. Blood sugar levels were measured over times.

[4] = tested on: IGF-1; test: Western blotting of IGF-1 expression in 3T3-L1; format: cell-based, mouse; conditions: 3T3-L1, 10 ng-1 μg/ml, 14 days; dose-dependent
Protocol: (§4) 3T3-L1 cells (pre-adipocytes) were seeded at a density of 3×10^5 cells/well into 6-well plates and grown for 24 hours. Subsequently, the cells were incubated with various concentrations (10 ng-1 μg/ml) of the peptides for 14 days in a 37° C. incubator. Proteins were extracted from cell lysates which were obtained by treatment with cell lysis buffer, quantitatively analyzed, and subjected to Western blotting using an anti-IGF-1 antibody, which is an antibody against the lipolytic marker, and an insulin antibody (Santa Cruz Biotechnology, USA).

[5] = tested on: insulin; test: Western blotting of insulin expression in 3T3-L1; format: cell-based, mouse; conditions: 3T3-L1, 10 ng-1 μg/ml, 14 days; dose-dependent
Protocol: as §4

[6] = tested on: PPARγ; test: RT-PCR expression of adipogenic marker PPARγ in 3T3-L1; format: cell-based, mouse; conditions: 3T3-L1, three days; complex 0.1, 1, 10 μg/ml; TNFα 100 ng/ml
Protocol: as §1, §2, §3

[7] = tested on: ACC; test: RT-PCR expression of adipogenic marker ACC in 3T3-L1; format: cell-based, mouse; conditions: 3T3-L1, three days; complex 0.1, 1, 10 μg/ml; TNFα 100 ng/ml
Protocol: as §1, §2, §3

[8] = tested on: DIO (diets induced obesity) models; test: Weight loss and adipogenesis suppression in high-fat diet-fed animal (DIO), 12 weeks; format: in vivo, mouse; conditions: for Weight: intraperitoneal injection; for Weight (%): relative to initial weight
Protocol: Models DIO (diets induced obesity), which had become obese by feeding high-fat diets thereto, were used for anti-obesity experiments in which TNFα 5 μg/ml was used as a positive control. For a control, a general diet, not a high-fat diet, was fed. In the experiment, a high-fat diet was fed for 12 weeks while the peptide complex or the positive control was applied. During the experiment, the weight was monitored. TNFα and the anti-obesity compounds were intraperitoneally injected at PM 3-4 o'clock every week for 12 weeks. Weights and meal sizes were measured just before the initial injection and then regularly at intervals of one week. Blood samples were taken from tail veins after the experiments of drug injection and measured for blood sugar levels, using Accu-Check Active (Roche) and analyzed for cholesterol levels, using Cholesterol calculation Kit (BioVision). Adipose tissues are divided into white fat and brown fat by color and into subcutaneous fat, abdominal fat, mesentery fat (visceral fat), and epididymal fat by tissue. After lipoectomy, the fats thus obtained from the tissues were observed. For histological examination, the fats were fixed with 10% neutral buffered formalin, embedded in paraffin blocks, cut into 5 μm-thick sections, and dyed with hematoxylin and eosin. To analyze the phosphorylation of the lipolytic marker HSL, fluorescent staining was carried out with an anti-pHSL antibody. A tissue sample was made, mounted on glycerine jell mounting media, and covered with a cover glass. The tissues were observed under a microscope (Nikon, TS100), with a built-in digital camera taking images thereof.

ASYLPHPWFS (Peptide 5) [SEQ ID NO: 5]
extent of fat (lipid) accumulation in cells, Oil red O staining [1]: decreased
expression level of adipogenic marker aP2 (individual peptides) [2]: decreased
blood sugar levels over time [3]: decrease in a time-dependent manner

NH2-Leu-Lys-Thr-Arg-Asn-COOH (H-LKTRN-OH) [SEQ ID NO: 1]
extent of fat (lipid) accumulation in cells, Oil red O staining [1]: decreased
expression level of adipogenic marker aP2 (individual peptides) [2]: decreased
blood sugar levels over time [3]: decrease in a time-dependent manner

SDLRRLEMYS (Peptide 7) [SEQ ID NO: 7]
expression of IGF-1 [4]: increased
expression of insulin [5]: increased

KGASTGWMA (Peptide 3) [SEQ ID NO: 3]
extent of fat (lipid) accumulation in cells, Oil red O staining [1]: decreased
expression level of adipogenic marker aP2 (individual peptides) [2]: decreased
blood sugar levels over time [3]: decrease in a time-dependent manner

TNFα
expression of adipogenic marker aP2 ([2]; 3T3-L1, three days, complex 0.1, 1, 10 μg/ml, TNFα 100 ng/ml): decrease
expression of adipogenic marker PPARγ [6]: decrease
expression of adipogenic marker ACC [7]: decrease
Weight ([8]; 0 w): 22.41 g
Weight (%) ([8]; 0 w): 100%
Weight ([8]; 1 w): 23 g
Weight (%) ([8]; 1 w): 102.6%
Weight ([8]; 2 w): 26.12 g
Weight (%) ([8]; 2 w): 116.6%
Weight ([8]; 3 w): 27.45 g
Weight (%) ([8]; 3 w): 122.5%
Weight ([8]; 4 w): 30.51 g
Weight (%) ([8]; 4 w): 136.1%
Weight ([8]; 5 w): 32.76 g
Weight (%) ([8]; 5 w): 146.2%
Weight ([8]; 6 w): 33.49 g
Weight (%) ([8]; 6 w): 149.4%
Weight ([8]; 7 w): 35.14 g
Weight (%) ([8]; 7 w): 156.8%
Weight ([8]; 8 w): 37.15 g
Weight (%) ([8]; 8 w): 165.8%
Weight ([8]; 9 w): 38.97 g
Weight (%) ([8]; 9 w): 173.9%
Weight ([8]; 10 w): 40.39 g
Weight (%) ([8]; 10 w): 180.2%
Weight ([8]; 11 w): 41.35 g
Weight (%) ([8]; 11 w): 184.5%
Weight ([8]; 12 w): 43.91 g
Weight (%) ([8]; 12 w): 195.9%
